One series relates to p16 protein. Briefly: SITp16 immunoblot of p16 protein after siRNA transfection, MDA/AR cells. The class given is cell-based, human. How it is done:
Next, the cell lines were subjected to a Standardized Immunoblot Test for expression of p16 Protein (“SITp16”). For this test, total cell protein lysates (also called extracts) were prepared according to standard methods (all reagents were from Sigma Chemical Co, St. Louis, Mo.). Briefly, cultured cells were rinsed 2 times with 15 mL PBS and incubated in 15 mL of Cell Dissociation Buffer (available from Sigma Chemical Co, St. Louis, Mo.) at 37° C. for approximately 10 minutes (i.e., or until they detached from the flask). Cells were collected in a 15 mL tube and centrifuged for 5 minutes at room temperature (RT) at 1,000 rpm (800×g). The supernatant was discarded and cells were washed 3 times with PBS at RT. The cell pellet was transferred to a microtube and 500 μL of PBS was added. The cells were centrifuged 5 minutes at 3,000 rpm in an Eppendorf Microfuge. The supernatant was removed by decanting and the pelleted cells were lysed in 50-150 μL of lysis buffer (50 mM NaCl, 50 mM Tris, pH 8 and 4% CHAPS), containing 1 μg/mL each of the proteases inhibitors pepstatin, leupeptin, and benzamidine, and 0.2 mM PMSF), and incubated 5 minutes on ice. The cell lysates were then sonicated with a Vibracell sonicator set at amplitude 40 setting #25 for 3 times 10 seconds with 1 minute incubations on ice between sonications, and stored at −80° C.
The protein concentration of each lysate was determined using the RC DC protein assay kit, according to the manufacturer's instructions (BioRad Laboratories, Hercules, Calif., USA; see also Lowry et al., J. Biol. Chem. 193: 265-275, 1951).
Total cell lysates were thawed, and 100 μg of protein (completed to 50 μL with nanopure water) were mixed with 10 μL of 5× electrophoresis buffer (60 mM Tris/HCl pH 6.8, 25% glycerol, 2% SDS, 14.4 mM β-mercaptoethanol, 0.1 % bromophenol blue) and the samples were heated at 100° C. for 5 minutes and loaded onto 10% SDS-PAGE gels. Resolved proteins were electrophoretically transferred onto nitrocellulose membranes (Hybond, Amercham Pharmacia Biotech) for 2 hours. After blocking the membranes with 5% non-fat milk in PBS overnight at 4° C., primary and secondary antibody incubations were in the same buffer at room temperature for 2 hour and 1 hour, respectively. The HRP substrate used was Supersignal West Pico Chemiluminescent Substrate (Pierce, Rockford, Ill., USA). Monoclonal antibody against p16INK4a (Ab-4, clone JC2) was purchased from Neomarkers (Fremont, Calif., USA) and used at 1:× dilution. […]
Experiments were next done comparing the ability of the mutated p16^INK4a siRNA described above (p16mut) with wild-type p16 siRNA. […] P16 protein levels were assessed 48 hours post-transfection using the SITp16 test. […]

In another series the test system is p16 mRNA. In words: p16 mRL test (RT-PCR) after siRNA transfection, MDA-AR cells. The class given is cell-based, human. To be noted: transfected 4 days previously (FIG. 15). How it is done:
In addition, a third test, namely the p16 mRNA overexpression RT-PCR assay (p16 mRL test) was performed to determine p16 mRNA levels per cell. For this test, the following methods were used:
Total RNA was extracted from approximately 1-5×10^6 cells using the RNeasy Mini extraction kit (commercially available from Qiagen Inc., Valencia, Calif.) following the manufacturer's instructions. Approximately 1-2 ug of the resulting RNA was used for each RT-PCR reaction. RT-PCR was performed using the Ready-To-Go RT-PCR beads commercially available from Amersham Biosciences (Piscataway, N.J.) following the manufacturer's instructions. […] RT-PCR products were analyzed by loading […] on a 1% agarose gel stained with Ethidium Bromide. Visualization of bands was done under a UV-illuminator and images were analyzed using the Alpha Imaging Software (Alpha Innotech Corp., San Leandro, Calif.).
For these studies, the p16 mRL test, which is described above in Example 3, was employed on MCF-7 or MDA-AR cells that had been transfected 4 days previously with GFP siRNA or p16 siRNA, as described above. For comparison purposes, the level of p16 mRNA in untransfected MCF-7 AR, MDA-AR, 2008, and SKOV3 cells was also assessed. […]

With “p16 siRNA I: siRNA duplex to p16INK4a Exon 1a; sense 5′ CAACGCACCGAAUAGUUACtt 3′, antisense 5′ GUAACUAUUCGGUGCGUUGtt 3′ (sense CAACGCACCGAAUAGUUACTT; antisense GUAACUAUUCGGUGCGUUGTT; chemistry not given here)”, the “reduction in p16 protein expression compared to gfp siRNA transfected cells” value with p16 protein (48 hours post-transfection (FIG. 18A)) was found to be 79%. Moreover, the results for the “reduction in p16 protein levels compared to p16 mut siRNA or gfp siRNA transfected cells” value in the series with p16 protein (transfected 2 days previously (FIG. 18B)) and in the series on p16 protein (transfected 4 days previously (FIG. 18B)) were 92% and 87%, respectively. The “amount of p16 mRNA versus gfp siRNA transfected cells” value in the series on p16 mRNA is on record as “lower amounts”.
